From PubChem BioAssay (NCI)
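Results reflect a 48-hour exposure of cells in 96-well plates to compound at five concentrations. GI50 = concentration required for 50% inhibition of growth. TGI is the concentration that stops growth completely.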

How the values were obtained:
Test in all cases: NCI anticancer screen, dose series, 48 h
DU-145 prostate = tested on: DU-145 prostate
NCI-H460 lung = tested on: NCI-H460 lung
OVCAR-4 ovarian = tested on: OVCAR-4 ovarian
OVCAR-8 ovarian = tested on: OVCAR-8 ovarian
RPMI-8226 leukemia = tested on: RPMI-8226 leukemia
SNB-75 CNS = tested on: SNB-75 CNS
SW-620 colon = tested on: SW-620 colon
UACC-257 melanoma = tested on: UACC-257 melanoma
OVCAR-3 ovarian = tested on: OVCAR-3 ovarian
SF-295 CNS = tested on: SF-295 CNS

Compound | TGI (DU-145 prostate) [µM] | TGI (NCI-H460 lung) [µM] | TGI (OVCAR-4 ovarian) [µM] | TGI (OVCAR-8 ovarian) [µM] | TGI (RPMI-8226 leukemia) [µM] | TGI (SNB-75 CNS) [µM] | TGI (SW-620 colon) [µM] | TGI (UACC-257 melanoma) [µM] | TGI (OVCAR-3 ovarian) [µM] | TGI (SF-295 CNS) [µM] | GI50 (DU-145 prostate) [µM] | GI50 (NCI-H460 lung) [µM] | GI50 (OVCAR-4 ovarian) [µM] | GI50 (OVCAR-8 ovarian) [µM] | GI50 (RPMI-8226 leukemia) [µM] | GI50 (SNB-75 CNS) [µM] | GI50 (SW-620 colon) [µM] | GI50 (UACC-257 melanoma) [µM]
N#CC1C=Cc2ccccc2N1C(=O)Oc1ccccc1 (centres undefined) | 93.8 | > 100 | > 100 | > 100 | 61.3 | > 100 | > 100 | > 100 |  |  |  |  |  |  |  |  |  | 
COc1cc2cc3c4c(cc(OC)c(OC)c4c2cc1OC)CCN3C(=O)CCC(=O)NCCCN(C)C |  | > 100 | > 100 | > 100 | > 100 | 53.2 | > 100 | > 100 | > 100 | > 100 |  |  |  |  |  |  |  | 
O=C(Nc1cccc(NC(=O)c2cc(=O)c3ccccc3o2)n1)c1cc(=O)c2ccccc2o1 |  | > 100 | > 100 | > 100 | 81.3 | > 100 | > 100 | > 100 | > 100 |  |  |  |  |  |  |  |  | 
COc1ccc2nc3ccccc3c(NCCCCN(C)CCCl)c2c1 |  | 0.234 | 0.843 |  | 0.544 | 0.504 | 0.2 | 4.93 | 0.712 | 1.17 |  |  |  |  |  |  |  | 
COc1cc2c(c(OC)c1OC)-c1ccc(SC)c(=O)cc1[C@@H](NC(=O)c1ccc(Cl)cc1)CC2 |  | 10.5 | > 100 | > 100 | 95.3 | > 100 | 41.3 | > 100 | 2.64 | < 0.01 |  |  |  |  |  |  |  | 
COc1ccc(C2CCc3cc4c(cc3/C2=N/OC(C)=O)OCO4)cc1OC (centres undefined) |  |  | > 100 | > 100 | 47.8 | 75 | > 100 | 51.6 | 55.9 | 82.2 |  |  |  |  |  |  |  | 
COC(=O)/C(=N/NC(N)=O)C(C(=O)OC)C(=O)C(=O)Nc1ccc(Cl)cc1 (centres undefined) |  | > 100 | > 100 | > 100 | > 100 | > 100 | > 100 | > 100 | > 100 | > 100 |  |  |  |  |  |  |  | 
CCSC(SCC)=C1C(=O)N(c2ccccc2)N=C1C |  | 29.5 |  | 24.4 | 27 | 43.9 | 20.3 | 18.5 | 20.2 | 73.5 |  |  |  |  |  |  |  | 
O=S(=O)(c1ccc(O)c(C=Nc2ccc(Cl)cc2)c1)c1ccc(O)c(C=Nc2ccc(Cl)cc2)c1 |  | > 100 | > 100 | > 100 | > 100 | > 100 | > 100 | > 100 | > 100 | > 100 |  |  |  |  |  |  |  | 
N=C1C=C(N)C(=O)c2[nH]c(=O)ccc21 | 21.4 | 6.95 | 2.74 |  |  |  | 6.7 | 16.6 | 2.96 | 31.2 |  |  |  |  |  |  |  | 
CSC1=NCC2(S1)c1ccccc1N(C(=O)OC(C)(C)C)C2N1CCCCC1 (centres undefined) | > 100 | > 100 | > 100 | > 100 | > 100 | 88.4 | > 100 | > 100 |  |  | > 100 | 69.6 | > 100 | > 100 | > 100 | 31.7 | > 100 | > 100
